Laboratory results as given in ChEMBL document CHEMBL1125945, “Tripyl-convergent total synthesis of a homochiral benzoindane-fused prostacyclin analog” (Bioorg Med Chem Lett, 1991).

Species on record: Homo sapiens
Assay: Compound was tested for inhibitory activity against collagen induced platelet aggregation
Assay type: functional

## O=C(O)COc1cccc2c1[C@H]1C[C@@H](O)[C@H](C#C[C@@H](O)C3CCCCC3)[C@H]1C2
  IC50: 2500 nM
